According to patent US20170143674A1, “Use of Glutaryl Histamine for the Treatment of Respiratory Tract Diseases” (LTD "VALENTA-INTELLEKT", priority 2011, published 2017):
Read-outs that look alike come from different tables or passages of the source. Marks after values point to notes of the source that are not given here.

Assays:
[1] = tested on: acute rhinosinusitis induced by intranasal administration of formalin; assay type: in vivo, rat; settings: for The number of caliciform cells within 1 mm of the mucosal membrane of the nasal septum: M ± m; for Mucopurulent catarrh (number of rats) / Mucous catarrh (number of rats) / Without changes (number of rats, mucous membrane in the nasal passages, macroscopic): n = 10
Description: Activity of glutaryl histamine was studied in an experimental model of acute rhinosinusitis (ARS).
Administration of 20 μl of 7.5% formalin to the rat nasal passages leads to the development of a clinical picture similar to the symptoms of acute rhinosinusitis in a human.
The tested medicament and reference medicaments were administered for 7 days after administration of 7.5% formalin. Normal saline solution was used as placebo. The animals were subjected to euthanasia on day 8 after induction of experimental acute rhinosinusitis by method of air embolism. During necropsy, nasal passages of all animals were sampled. The obtained material was placed into 10% neutral-buffered formalin for further histological analysis.
The mucous and submucous membranes of both nasal passages (respiratory and olfactory regions) of the experimental animals were subjected to a morphological analysis of the specific activity of glutaryl histamine.
After the clinical phase of the experiment, the material derived from the animals was subjected to the standard treatment to prepare histological paraffin sections with a thickness of 3 to 5 μm. The sections were stained with hematoxylin and eosin for a microscopic study. Comparison and histological analysis of changes were performed versus the group of intact rats.
The main pathological processes inherent in experimental acute rhinosinusitis, such as vascular congestion in mucous membrane, hyperplasia and necrosis of the epithelium, the number of caliciform cells within 1 mm of the mucous membrane in the nasal septum, were evaluated by a semi-quantitative method to evaluate the degree of pathophysiological changes in histological, histochemical and morphological studies.
The microscopic analysis of exudative disorder developed in rats with acute rhinitis was aimed at measuring the number of caliciform cells comprising acidic mucus (Table 3).

[2] = tested on: Staphylococcus aureus (mouse-adapted strain 10); test: animal or person; assay type: in vivo, mice; settings: for Mortality rate (%) / Survival rate (%): tenth day
Description: The tested medicament was glutaryl histamine in doses of 15, 30 and 45 mg/kg. Solutions of the tested medicament for oral administration were prepared ex tempore. Levofloxacin (in oral administration) was used as a therapeutic preparation since this substance was the most experimentally studied antibiotic approved in clinical practice many years ago.
Staphylococcus aureus (mouse-adaptedstrain 10) was used as an infectious agent. Mice were infected intravenously.
Firstly, there was determined a lethal dose (LD100) of staphylococcus to be intravenously administered to this line of mice having a certain weight. Fatal cases among mice were registered every day for ten days. The lethal dose was 3×10^8 CFU/mouse. […] For this purpose, mice were housed into cages (10 animals per cage) and infected with a lethal dose of staphylococcus. One hour after each mouse was administered orally levofloxacin in doses of 1, 2, 4, 6, 8, 10, and 12 mg/kg. A group of mice infected with a lethal dose of staphylococcus without the treatment was considered as a control group. Fatal cases among mice were registered every day for ten days.
The next step of the experiment was to study an effect of combined administration of glutaryl histamine and levofloxacin on a model of staphylococcal sepsis in mice.
In the experiment, mice were housed in following groups (10 animals per cage):
Glutaryl histamine was administered orally in the corresponding doses to the mice of groups 3, 4, 5, 6, 7, and 8 for 5 days. Five day after, all groups of mice were intravenously administered with 0.2 ml of Staphylococcus aureus in the lethal dose. […] After infection and administration of levofloxacin, glutaryl histamine was administered to mice of groups 3-8 for additional 5 days. During the experiment, the animals were observed every day, and fatal cases were registered (see Table 13).

[3] = tested on: acute respiratory distress syndrome (ARDS); test: ARDS model, multiple-dose intravenous LPS (LD30); assay type: in vivo, rat; settings: for Died: total number 24
Description: Since an intravenous administration of lipopolysaccharide (LPS) to animals is one of the most acceptable models for studying the pathogenesis, pathomorphological changes and consequences of acute respiratory distress syndrome, this model was used in this example. Tested medicament glutaryl histamine was administered for 9 days after the first administration of LPS, i.e. glutaryl histamine was administered for 12 days in total (3 days before the induction of ARDS and 9 days during and after the induction). The exception was dexamethasone since, according to the literature data and the information leaflet, long-time administration of steroidal anti-inflammatory agents can cause severe side effects. For this reason, dexamethasone was administered according to the following schedule: 49, 24 and 1 hour before the induction of ARDS in a dose of 5 mg/kg, for 3 days after the first injection of LPS in the same dose; the medicament was withdrawn by a gradual dose reduction for 3 days. Thus, dexamethasone was administered 9 times.
At this step, animals were administered LPS at more lower dose, but for longer time period. They were received 2 mg/kg on days 1 and 2, and 3 and 4 mg/kg on days 3 and 4, respectively. The maximum mortality rate, similarly to the single-dose administration of LD70, was on the first day. On eighth day, mortality reached 33%.
The second step of the experiment comprises the evaluation of both the mortality rate of the animals with calculation of the protective index and narrower indexes used for determination of a specific protection provided by glutaryl histamine in ARDS. As was disclosed above, a lower dose of LPS (LD30) was used at the second stage. In addition, LPS was administered every day for 4 days. This method of administration was aimed at achieving the maximum disorder exactly in the lung for subsequent evaluation of possible protective action of glutaryl histamine.

[4] = Glutaryl histamine 27 mg/kg, listed as Glutaryl histamine

In the case of O=C(O)CCCC(=O)NCCc1c[nH]cn1 [glutaryl histamine], the “The number of caliciform cells within 1 mm of the mucosal membrane of the nasal septum” value (“The number” below) ([1]; Glutaryl histamine 9 mg/kg) is reported as 29.0 ± 2.7* **, the “Mucopurulent catarrh (number of rats)” value ([1]; Glutaryl histamine 9 mg/kg) is reported as 3 and the “Mucous catarrh (number of rats)” value ([1]; Glutaryl histamine 9 mg/kg) is reported as 4. For the same compound, the “Without changes (number of rats, mucous membrane in the nasal passages, macroscopic)” value (“Without changes” for short) ([1]; Glutaryl histamine 9 mg/kg) was 3, the “The number” value ([1]; Glutaryl histamine 27 mg/kg) was 19.6±2.4 and the “The number” value [1, 4] was 19.6 ± 2.4. For the same compound, the “Mucopurulent catarrh (number of rats)” value ([1]; Glutaryl histamine 27 mg/kg) was 1, the “Mucous catarrh (number of rats)” value ([1]; Glutaryl histamine 27 mg/kg) was 1 and the “Without changes” value ([1]; Glutaryl histamine 27 mg/kg) was 8. For the same compound, the “The number” value ([1]; Glutaryl histamine 45 mg/kg) was 23.9 ± 1.7* **, the “Mucopurulent catarrh (number of rats)” value ([1]; Glutaryl histamine 45 mg/kg) was 0 and the “Mucous catarrh (number of rats)” value ([1]; Glutaryl histamine 45 mg/kg) was 0. The “Without changes” value ([1]; Glutaryl histamine 45 mg/kg) was 10, the died/survived animals ([2]; day 1, glutaryl histamine 15 mg/kg) was 0/10 and the died/survived animals ([2]; day 1, glutaryl histamine 30 mg/kg) was 0/10. For the same compound, the died/survived animals ([2]; day 1, glutaryl histamine 45 mg/kg) was 0/10, the died/survived animals ([2]; day 2, glutaryl histamine 15 mg/kg) was 0/10 and the died/survived animals ([2]; day 2, glutaryl histamine 30 mg/kg) was 0/10. The died/survived animals ([2]; day 2, glutaryl histamine 45 mg/kg) was 0/10, the died/survived animals ([2]; day 3, glutaryl histamine 15 mg/kg) was 0/10 and the died/survived animals ([2]; day 3, glutaryl histamine 30 mg/kg) was 0/10. For the same compound, the died/survived animals ([2]; day 3, glutaryl histamine 45 mg/kg) was 1/9, the died/survived animals ([2]; day 4, glutaryl histamine 15 mg/kg) was 1/9 and the died/survived animals ([2]; day 4, glutaryl histamine 30 mg/kg) was 1/9. For the same compound, the died/survived animals ([2]; day 4, glutaryl histamine 45 mg/kg) was 2/8, the died/survived animals ([2]; day 5, glutaryl histamine 15 mg/kg) was 2/8 and the died/survived animals ([2]; day 5, glutaryl histamine 30 mg/kg) was 3/7. For the same compound, the died/survived animals ([2]; day 5, glutaryl histamine 45 mg/kg) was 4/6, the died/survived animals ([2]; day 6, glutaryl histamine 15 mg/kg) was 3/7 and the died/survived animals ([2]; day 6, glutaryl histamine 30 mg/kg) was 4/6. For the same compound, the died/survived animals ([2]; day 6, glutaryl histamine 45 mg/kg) was 5/5, the died/survived animals ([2]; day 7, glutaryl histamine 15 mg/kg) was 4/6 and the died/survived animals ([2]; day 7, glutaryl histamine 30 mg/kg) was 6/4. The died/survived animals ([2]; day 7, glutaryl histamine 45 mg/kg) was 7/3, the died/survived animals ([2]; day 8, glutaryl histamine 15 mg/kg) was 6/4 and the died/survived animals ([2]; day 8, glutaryl histamine 30 mg/kg) was 7/3. The died/survived animals ([2]; day 8, glutaryl histamine 45 mg/kg) was 8/2, the died/survived animals ([2]; day 9, glutaryl histamine 15 mg/kg) was 7/3 and the died/survived animals ([2]; day 9, glutaryl histamine 30 mg/kg) was 7/3. The died/survived animals ([2]; day 9, glutaryl histamine 45 mg/kg) was 8/2, the died/survived animals ([2]; day 10, glutaryl histamine 15 mg/kg) was 8/2 and the died/survived animals ([2]; day 10, glutaryl histamine 30 mg/kg) was 7/3. For the same compound, the died/survived animals ([2]; day 10, glutaryl histamine 45 mg/kg) was 8/2, the “Mortality rate (%)” value ([2]; glutaryl histamine 15 mg/kg) was 80% and the “Survival rate (%)” value ([2]; glutaryl histamine 15 mg/kg) was 20%. The “Mortality rate (%)” value ([2]; glutaryl histamine 30 mg/kg) was 70%, the “Survival rate (%)” value ([2]; glutaryl histamine 30 mg/kg) was 30% and the “Mortality rate (%)” value ([2]; glutaryl histamine 45 mg/kg) was 80%. The “Survival rate (%)” value ([2]; glutaryl histamine 45 mg/kg) was 20%, the “IP (%) (protective index)” value ([3]; Glutaryl histamine 0.5 mg/kg) was 62.5% and the “M (%) (mortality rate)” value ([3]; Glutaryl histamine 0.5 mg/kg) was 12.5%. For the same compound, the “S (%) (survival rate)” value ([3]; Glutaryl histamine 0.5 mg/kg) was 87.5%, the Died ([3]; Glutaryl histamine 0.5 mg/kg) was 3 and the “IP (%) (protective index)” value ([3]; Glutaryl histamine 27 mg/kg) was 75%. For the same compound, the “M (%) (mortality rate)” value ([3]; Glutaryl histamine 27 mg/kg) was 8.3%, the “S (%) (survival rate)” value ([3]; Glutaryl histamine 27 mg/kg) was 91.7% and the “IP (%) (protective index)” value [3, 4] was 75.0%. The Died ([3]; Glutaryl histamine 27 mg/kg) was 2.
